Reference: the OPERA property sets (Mansouri et al. 2018)
Where a SMILES comes first, the peptide text is derived from it.

CCc1ccc(CNc2[nH]cnc3ncnc2-3)cc1 and CCCOc1ccc(CNc2[nH]cnc3ncnc2-3)cc1 are within 0.2 log units of each other in logP: 3.17 for the first, 3.15 for the second.

Going from CCOc1cc2ncnc(Nc3cccc(Cl)c3)c2cc1OCC to CCCc1cccc(CNc2[nH]cnc3ncnc2-3)c1, the logP falls from 4.31 to 3.53.

Compared with Cc1nc(C(Cl)(Cl)Cl)nc(C(Cl)(Cl)Cl)n1, COc1nc(N)nc(NC(C)(C)C)n1 is lower in logP: 3.78 for the first, 1.93 for the second.

First: Cc1cc(=O)[nH]nc1/C=C/c1ccc(-n2ccnc2)cc1
Second: Cc1cccc(C)c1CCn1ccnc1
The logP of the first is lower: 1.71 for the first, 2.73 for the second.

O=C(O)Cc1ccc2c(c1)SCc1ccccc1C2=O and O=C(CC1CCc2cc(Br)cc3[nH]c(=O)c(=O)n1c23)Nc1ccccc1 (stereo not drawn) are within 0.2 log units of each other in logP: 2.97 for the first, 2.78 for the second.

COc1ccc(C2=NC(C)(C(=O)O)CS2)c(O)c1OC (stereo not drawn) and CC1(C(=O)O)CSC(c2cc(O)ccc2O)=N1 (stereo not drawn) are within 0.2 log units of each other in logP: 1.4 for the first, 1.3 for the second.

Compared with COc1ccc([N+](=O)[O-])c(C)c1, COc1ccc(C2=NC(C(=O)O)CS2)c(O)c1 (stereo not drawn) is lower in logP: 2.32 for the first, 1.5 for the second.

Compared with COC(=O)c1[nH]cc(-c2ccc(Br)cc2)c1N1CCOCC1, O=C(Nc1ncc([N+](=O)[O-])s1)c1ccc(Br)cc1 is lower in logP: 3.8 for the first, 3.58 for the second.

Going from CCC(=O)NCCCCCN(O)C(=O)CCC(=O)NCCCCCN(O)C(=O)CCC(=O)NCCCCCN(O)C(C)=O to CCCCCCCCCCCCNCCO, the logP rises from 0.17 to 4.51.

First: O=C1C=C(N2CCCC2)CN1c1ccc(Cl)cc1
Second: O=C1C=C(N2CCCCCC2)CN1c1ccc(Cl)cc1
The logP of the first is lower: 2.6 for the first, 3.4 for the second.

Going from CCON=C(CC)C1=C(O)CC(c2cccc(Oc3ncc(C(F)(F)F)cc3F)c2)CC1=O (stereo not drawn) to O=C(O)CCCCCON=C(c1cccc(C(F)(F)F)c1)c1ccncn1, the logP falls from 4.63 to 3.55.

Compared with C#C[C@]1(O)CC[C@H]2[C@@H]3CCC4=CC(=O)CC[C@@H]4[C@H]3C(=C)C[C@@]21CC, CC1CC2C3CCC4=CC(=O)C=CC4(C)C3(F)C(O)CC2(C)C1(O)C(=O)COC(=O)C1CCCCC1 (stereo not drawn) is higher in logP: 3.16 for the first, 4.46 for the second.

Going from O=C(O)c1cccc(F)c1F to Nc1cccc(Nc2ccccc2C(=O)O)c1, the logP rises from 1.88 to 2.99.

First: Cc1sc2c(C)cc3c(C)cc(=O)oc3c2c1C
Second: Cc1oc2cc(C)c3ccc(=O)oc3c2c1C
The logP of the first is higher: 4.09 for the first, 3.36 for the second.

Compared with CC(C(=O)O)c1ccc(N2CC3CCCCC3C2=O)cc1 (stereo not drawn), OC(CCNC1CCCCC1)COc1cccc2ccccc12 (stereo not drawn) is higher in logP: 3.15 for the first, 3.99 for the second.

First: NC(=O)C1CN(CC(=O)Nc2c(Cl)cccc2Cl)CCN1CCCC(c1ccc(F)cc1)c1ccc(F)cc1 (stereo not drawn)
Second: O=C(NO)C(Cc1ccccc1)C(=O)NCc1ccc(F)cc1 (stereo not drawn)
The logP of the first is higher: 5.26 for the first, 1.8 for the second.

Going from O=c1cc(CSCCO)occ1O to CC(=O)Oc1coc(CBr)cc1=O, the logP rises from -0.69 to 0.51.

First: COc1ccc(CCNCC(O)COc2ccc(-c3nc(C)c[nH]3)cc2Br)cc1OC (stereo not drawn)
Second: Cc1c[nH]c(Cc2ccc(OCC(O)CNC(C)(C)C)cc2)n1 (stereo not drawn)
The logP of the first is higher: 3.8 for the first, 1.4 for the second.

First: CC(C)NC(=NC#N)NS(=O)(=O)c1cnccc1NC1CCCC1
Second: O=C(NC1CCCCC1)NS(=O)(=O)c1cnccc1NC1CCCCC1
The logP of the first is lower: 0.98 for the first, 4.23 for the second.

Going from CC(C)CCC(=O)CC1c2ccccc2C(=O)N1c1ccc2ccc(Cl)nc2n1 (stereo not drawn) to CCOC1N=C(c2ccccc2)c2cc(Cl)ccc2N(CCCl)C1=O (stereo not drawn), the logP falls from 4.8 to 3.95.

Compared with NS(=O)(=O)c1ccncn1, CCCCCC(=O)c1ccncc1 is higher in logP: -0.2 for the first, 2.9 for the second.

Compared with CCCNc1nc(CCC)nc(N2CCOCC2)n1, c1ccc(N2CCN(CCn3nc4ccccc4n3)CC2)cc1 is higher in logP: 2.7 for the first, 3.34 for the second.

Going from Nc1nnnn1-c1ccc(Cl)c(Cl)c1 to COc1ccc(-n2nnnc2N)cc1, the logP falls from 2.06 to 0.85.

First: CC(CO)NC(=O)Cn1ccnc1[N+](=O)[O-] (stereo not drawn)
Second: COCCCNC(=O)Cn1cnc([N+](=O)[O-])n1
The logP of the first is lower: -1.02 for the first, -0.49 for the second.

CC(C)C[C@H](NC(=O)[C@@H](N)CC(C)C)C(=O)O and CCC(C)C(NC(=O)C(CC(C)C)NC(=O)C(N)C(C)O)C(=O)O (stereo not drawn) (H-Thr-Leu-Ile-OH; configuration not given here) are within 0.2 log units of each other in logP: -1.47 for the first, -1.66 for the second.

Compared with CC(=O)OC(C)(C)C1CCC2(C)CCCC(C)(O)C2C1 (stereo not drawn), CCCC(=NOCC)C1=C(O)CC2(CCCC3CCCCC32)OC1=O (stereo not drawn) is higher in logP: 3.8 for the first, 5 for the second.

First: N=C(N)Nc1nc(-c2ccc(N)cc2)cs1
Second: Cc1ccc(CO)c(C=NNC(=O)c2ccc(N)cc2)c1O
The logP of the first is lower: 1.08 for the first, 2.16 for the second.

Going from CCCCCOc1cccc(NC(=O)OCCN2CCCCC2)c1 to CCOc1ccc(NC(=O)OCCN2CCCCC2)cc1, the logP falls from 5.5 to 3.41.

Compared with CC(=O)NC(CCCN(Cc1ccccc1)C(=O)N(C)N=O)C(=O)NCc1ccccc1 (stereo not drawn), CC(=O)NC(CCCCNC(=O)N(CCCl)N=O)C(=O)NCc1ccccc1 (stereo not drawn) is lower in logP: 2 for the first, 1.54 for the second.

First: CC(C)CC(N)C(=O)NC(CC(C)C)C(=O)NC(CC(C)C)C(=O)N1CCCC1C(=O)O (stereo not drawn) (H-LLLP-OH; configuration not given here)
Second: CC(C)CC(NC(=O)C(NC(=O)C1CCCN1C(=O)C(N)C(C)C)C(C)C)C(=O)O (stereo not drawn) (H-VPVL-OH; configuration not given here)
The logP of the first is higher: -1.18 for the first, -1.91 for the second.

Going from c1ccc(Cn2cccn2)cc1 to NC1=NCC(COc2ccccc2Cc2ccccc2)O1 (stereo not drawn), the logP rises from 1.78 to 3.05.

Compared with C=CC(=O)OCCCOC(=O)C=C, C=CC(=O)OCCOCCO is lower in logP: 0.87 for the first, -0.3 for the second.

Compared with COc1cc(OC)c2c(c1)OC(c1ccc(OC)c(OC)c1)C(OC)C2 (stereo not drawn), COc1cc(OC)c(C=[N+]([O-])C(C)(C)C)c(OC)c1 is lower in logP: 3.68 for the first, 1.2 for the second.

First: CCOC(=O)C1=C(C)NC(C)=C(C(=O)OC)C1c1ccccc1 (stereo not drawn)
Second: CCOC(=O)c1c[nH]c2ccccc12
The logP of the first is higher: 4.14 for the first, 3.04 for the second.

First: Cc1ccccc1C=[N+]([O-])C(C)(C)C
Second: CCCN(CC)CC(=O)Nc1c(C)cccc1C
The logP of the first is lower: 1.5 for the first, 2.74 for the second.

Going from OCC1OC(n2cnc3c(NCCc4ccccc4)ncnc32)C(O)C1O (stereo not drawn) to CCOCCCNc1ncnc2c1ncn2C1OC(CO)C(O)C1O (stereo not drawn), the logP falls from 1.55 to 0.22.

CCCC(=NOCC)C1=C(O)CC2(CCCC2)OC1=O and COc1ccccc1NC(=O)OCCN1CCCCC1 are within 0.2 log units of each other in logP: 3.22 for the first, 3.11 for the second.

First: CCCNC(=O)N1C(=O)N(C)CC1O (stereo not drawn)
Second: CCCNC(=O)CCC(=O)NCc1c(O)c(=O)cc(C)n1C
The logP of the first is higher: 0.99 for the first, -0.7 for the second.

Going from CCC(C)C(N)C(=O)NC(C(=O)NC(C(=O)NC(C(=O)NC(C(=O)O)C(C)CC)C(C)C)C(C)C)C(C)C (stereo not drawn) (H-IVVVI-OH; configuration not given here) to CC(C)CC(NC(=O)C(NC(=O)C(CO)NC(=O)C(CC(C)C)NC(=O)CN)C(C)C)C(=O)O (stereo not drawn) (H-GLSVL-OH; configuration not given here), the logP falls from -0.89 to -1.64.

Compared with Cc1nc2ccccc2c(=O)n1CC(=O)O, Nc1ccc2nc3ccccn3c2n1 is higher in logP: 0.38 for the first, 1.38 for the second.

Compared with Cc1ccc(C)c(OCC2CN=C(N)O2)c1 (stereo not drawn), Cc1cccc2nc(N)nc(N)c12 is lower in logP: 2.29 for the first, 1.26 for the second.

Compared with Cc1nc2c3c(c(C(=O)NC4CCC4)cn2c1C)CCC(c1ccccc1)O3 (stereo not drawn), CC#CC(=O)c1c(C)nc2c3c(c(C(=O)N(C)C)cn12)CCC(c1ccccc1)O3 (stereo not drawn) is lower in logP: 4.5 for the first, 3.4 for the second.

First: CC(N)C(=O)NC(Cc1ccccc1)C(=O)NCC(=O)NC(C(=O)NC(Cc1ccccc1)C(=O)O)C(C)C (stereo not drawn) (H-AFGVF-OH; configuration not given here)
Second: CCC(C)C(N)C(=O)NC(C)C(=O)NCC(=O)NC(Cc1ccccc1)C(=O)O (stereo not drawn) (H-IAGF-OH; configuration not given here)
The logP of the first is higher: -0.59 for the first, -1.78 for the second.

Compared with CS(=O)(=O)Nc1cccc(Cn2cnc3ccccc32)c1, Nc1nc(N)c2c(Oc3ccccc3)cccc2n1 is higher in logP: 2.08 for the first, 2.78 for the second.

Compared with Cc1[nH]cnc1CSCCNC1=C([N+](=O)[O-])CCN1, O=C1c2cc([N+](=O)[O-])ccc2OCN1CCO[N+](=O)[O-] is higher in logP: -0.87 for the first, 1.66 for the second.

First: COc1ccc(C2Cc3c(OC)cccc3N(CCN(C)C)C(=O)C2C)cc1 (stereo not drawn)
Second: COc1ccc(C2Cc3cc(Sc4ccccc4)ccc3N(CCN(C)C)C(=O)C2OC(C)=O)cc1 (stereo not drawn)
The logP of the first is lower: 4.6 for the first, 5.8 for the second.

First: CC1NCCc2c1[nH]c1ccccc21 (stereo not drawn)
Second: c1ccc2c(c1)OCC(C1=NCCN1)O2 (stereo not drawn)
The logP of the first is higher: 2.06 for the first, 1.63 for the second.

First: CN1CCN(CCn2nnc3ccccc32)CC1
Second: COc1ccccc1-n1nnnc1N
The logP of the first is lower: 0.36 for the first, 0.56 for the second.

First: CC1CC(N)CN1c1cc2c(cc1F)c(=O)c(C(=O)O)cn2-c1ccc(F)cc1F (stereo not drawn)
Second: O=c1cc(-c2ccccc2)oc2ccc(Cl)cc12
The logP of the first is lower: 0.09 for the first, 3.92 for the second.

Going from O=C1CCC(=O)N1c1ccc(Cl)c(Cl)c1 to CC(C)c1cccc(O)c(=O)c1, the logP rises from 1.35 to 1.82.

Going from COc1ccc(Nc2nc(O)nc(NC(C)C)n2)cc1OC to CCON=C(C)c1cccc(Oc2nc(OC)cc(OC)n2)c1C(=O)OC, the logP falls from 3.49 to 2.96.

Going from CCN(CC)CCCC(C)NC(=O)c1ccc([N+](=O)[O-])cc1[N+](=O)[O-] (stereo not drawn) to COc1ccc2cc(C(C)C(=O)OCCCCOC(C)=O)ccc2c1 (stereo not drawn), the logP rises from 1.73 to 3.3.

Compared with ClCC1(C(Cl)Cl)C2CC(Cl)(Cl)C1(C(Cl)Cl)CC2(Cl)Cl (stereo not drawn), CC(C)CC(NC(=O)C1CCCN1)C(=O)O (stereo not drawn) (H-Pro-Leu-OH; configuration not given here) is lower in logP: 5.96 for the first, -2.41 for the second.

First: CNC(C)Cc1ccc(OC)cc1 (stereo not drawn)
Second: CCC(C)C(NC(=O)C(N)Cc1ccccc1)C(=O)NC(C(=O)O)C(C)O (stereo not drawn) (H-Phe-Ile-Thr-OH; configuration not given here)
The logP of the first is higher: 1.91 for the first, -1.95 for the second.

Going from C=CC(=O)OCC(COC(=O)C=C)(COC(=O)C=C)COC(=O)C=C to CCCNC(=O)CNC(=O)C=[N+]=[N-], the logP falls from 2.11 to -0.24.

Compared with CC(NC(=O)C(C)NC(=O)C(N)C(C)C)C(=O)NC(Cc1ccccc1)C(=O)O (stereo not drawn) (H-VAAF-OH; configuration not given here), COC(=O)C(C)=CC1C(C(=O)OCc2cccc(Oc3ccccc3)c2)C1(C)C (stereo not drawn) is higher in logP: -1.91 for the first, 6.48 for the second.

Compared with Clc1ccc(C=NOCCc2nnc(-c3ccccc3)o2)cc1, Cc1ccc(CO)c(C=NNC(=O)c2ccncc2)c1O is lower in logP: 3.01 for the first, 2.16 for the second.

Compared with OC(CNCC1COc2ccccc2O1)CON=C(C1CC1)C1CC1 (stereo not drawn), O=C(NC1CCCCC1)NS(=O)(=O)c1cnccc1NC1CCCCCC1 is higher in logP: 2.22 for the first, 4.59 for the second.

Going from CC(C)=CCNc1ncnc2nc[nH]c12 to c1nc2nc[nH]c(N3CCCCCC3)c-2n1, the logP rises from 2.2 to 2.53.

Compared with Nc1ccn([C@H]2CS[C@@H](CO)O2)c(=O)n1, OCCCCCCCCNc1ncnc2c1ncn2C1OC(CO)C(O)C1O (stereo not drawn) is higher in logP: -0.93 for the first, 1.3 for the second.

Compared with CCCCNCC(C)O (stereo not drawn), CCCCOCCCCCNC(=O)NC12CC3CC(CC(C3)C1)C2 is higher in logP: 1.22 for the first, 5 for the second.

Work on Cc1cc2c(o1)c(C)cc1c(C)cc(=O)n(C)c12 yielded a logP of 3.43.
